# Data taken from US7323456B2, “Carboxylic acid derivatives compounds and agents comprising the compounds as active ingredient” (Ono Pharmaceutical Co., Ltd., priority 2001, dated 2008).
# Key:
# human PPAR α = target: T1, human PPAR α (Homo sapiens, UniProt Q07869); assay: Luciferase assay of PPAR α agonistic activity (Gal4-PPAR chimeric receptor, CV-1 cells); type: cell-based; details: compound 10 μM, luciferase activity of carbacyclin (10 μM) defined as 1.0, 42 hours
# T1 construct: expressed in transfected cells; host or cells: CV-1 cells
# T1 sequence (Q07869 167-468): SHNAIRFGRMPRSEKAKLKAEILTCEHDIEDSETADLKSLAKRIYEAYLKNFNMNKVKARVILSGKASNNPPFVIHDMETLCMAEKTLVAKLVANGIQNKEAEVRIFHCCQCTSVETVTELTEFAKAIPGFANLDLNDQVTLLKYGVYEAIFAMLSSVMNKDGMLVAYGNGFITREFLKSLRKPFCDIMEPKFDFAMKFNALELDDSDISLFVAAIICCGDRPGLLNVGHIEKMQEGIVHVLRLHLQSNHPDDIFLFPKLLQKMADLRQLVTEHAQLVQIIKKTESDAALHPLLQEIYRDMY
# human PPAR γ = target: T2, human PPAR γ (Homo sapiens, UniProt P37231); assay: Luciferase assay of PPAR γ agonistic activity (Gal4-PPAR chimeric receptor, CV-1 cells); type: cell-based; details: compound 10 μM, luciferase activity of troglitazone (10 μM) defined as 1.0, 42 hours
# T2 construct: expressed in transfected cells; host or cells: CV-1 cells
# T2 sequence (P37231 204-505): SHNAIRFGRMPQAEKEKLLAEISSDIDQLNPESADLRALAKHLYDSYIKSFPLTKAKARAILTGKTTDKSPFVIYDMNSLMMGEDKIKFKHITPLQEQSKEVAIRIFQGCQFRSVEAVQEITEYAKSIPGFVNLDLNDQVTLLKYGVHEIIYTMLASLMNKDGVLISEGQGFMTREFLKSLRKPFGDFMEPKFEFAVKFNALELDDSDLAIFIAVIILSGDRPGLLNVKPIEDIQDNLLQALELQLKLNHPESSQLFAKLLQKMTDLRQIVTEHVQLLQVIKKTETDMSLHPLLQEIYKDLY
structure (smiles),measurement,setting,value
"C=CCN(CC(=O)O)Cc1cccc(OCCc2nc(-c3ccc(N4CCCCCC4)nc3)oc2C)c1 [Example 2, 2-(N-allyl-N-(3-(2-(2-(6-(perhydroazepin-1-yl)pyridin-3-yl)-5-methyloxazol-4-yl)ethoxy)benzyl)amino)acetic acid]",Relative Activity to a positive control compound (carbacyclin = 1),human PPAR α,0.9
same,Relative Activity to a positive control compound (troglitazone = 1),human PPAR γ,11.5
